Source: patent publication US20150157739A1, “Imidazo[2,1]thiazol-3-one derivatives” (Hoffmann-La Roche Inc., priority 2012, published 2015)

What was measured:
[1] = molecular target: T1, aggregated recombinant human-microtubule associated protein Tau (Homo sapiens, UniProt P10636); assay: Thiazin-red R displacement fluorescence assay on aggregated Tau; assay type: binding; conditions: displacement of Thiazin-red R from aggregated Tau; compound 0.3 nM to 10000 nM; 30 min room temperature; Ex 531 nm/Em 595 nm
T1 construct: Recombinant human-microtubule associated protein Tau purified from E. coli is aggregated at a concentration of 5 μM with Arachidonic Acid (100 μM) in Tris 10 mM pH8, 24 h at 37° C
Protocol: (§1) Assay for Determination of […] for Tau and A-Beta
(§2) Recombinant human-microtubule associated protein Tau purified from E. coli is aggregated at a concentration of 5 μM with Arachidonic Acid (100 μM) in Tris 10 mM pH8, 24 h at 37° C. Synthetic Aβ40 is aggregated at a concentration of 50 μM with Arachidonic Acid (100 μM) in Tris 10 mM pH8, for three days at 37° C., under shaking at 150 rpm.
(§3) A saturation analysis of Thiazin-red R to the aggregated proteins is done to determine the affinity (Kd) of the Thiazin-red R to the aggregated protein.
(§4) Thiazin-red R will be added at the concentration corresponding to the Kd to the respective aggregated protein binding site, to induce a fluorescent signal that can be inhibited by the addition of a displacer compound.
(§5) In parallel, auto fluorescence of the compound is measured together with the aggregated proteins, but without Thiazin-red R. As negative control, ligand and aggregated protein is used and as positive control, Thiazin-red R, reference compound with known activity and aggregated protein is used.
(§6) Assay is performed in Perkin Elmer OptiPlate 384, black, 45 ul assay volume, assay buffer is DPBS no CaCl2 no MgCl2 (GIBCO N. 14020). Tested compounds are diluted in DMSO and 2 μl is added to the assay ([…]). Assay is started by the addition of the aggregated protein (competitive condition). Plates are shortly shacked (1 min with Sterico variomag teleshake) and incubated for 30 min at room temperature. Measurement are done with En:Vision (Perkin Elmer), at Excitation 531 nm/Emission 595 nm.

[2] = molecular target: T2, aggregated synthetic Aβ40 (Homo sapiens, UniProt P05067); assay: Thiazin-red R displacement fluorescence assay on aggregated A-beta; assay type: binding; conditions: displacement of Thiazin-red R from aggregated Aβ40; compound 0.3 nM to 10000 nM; 30 min room temperature; Ex 531 nm/Em 595 nm
T2 construct: Synthetic Aβ40 is aggregated at a concentration of 50 μM
Protocol: as §1, §2, §3, §4, §5, §6

T1 sequence (P10636 whole entry): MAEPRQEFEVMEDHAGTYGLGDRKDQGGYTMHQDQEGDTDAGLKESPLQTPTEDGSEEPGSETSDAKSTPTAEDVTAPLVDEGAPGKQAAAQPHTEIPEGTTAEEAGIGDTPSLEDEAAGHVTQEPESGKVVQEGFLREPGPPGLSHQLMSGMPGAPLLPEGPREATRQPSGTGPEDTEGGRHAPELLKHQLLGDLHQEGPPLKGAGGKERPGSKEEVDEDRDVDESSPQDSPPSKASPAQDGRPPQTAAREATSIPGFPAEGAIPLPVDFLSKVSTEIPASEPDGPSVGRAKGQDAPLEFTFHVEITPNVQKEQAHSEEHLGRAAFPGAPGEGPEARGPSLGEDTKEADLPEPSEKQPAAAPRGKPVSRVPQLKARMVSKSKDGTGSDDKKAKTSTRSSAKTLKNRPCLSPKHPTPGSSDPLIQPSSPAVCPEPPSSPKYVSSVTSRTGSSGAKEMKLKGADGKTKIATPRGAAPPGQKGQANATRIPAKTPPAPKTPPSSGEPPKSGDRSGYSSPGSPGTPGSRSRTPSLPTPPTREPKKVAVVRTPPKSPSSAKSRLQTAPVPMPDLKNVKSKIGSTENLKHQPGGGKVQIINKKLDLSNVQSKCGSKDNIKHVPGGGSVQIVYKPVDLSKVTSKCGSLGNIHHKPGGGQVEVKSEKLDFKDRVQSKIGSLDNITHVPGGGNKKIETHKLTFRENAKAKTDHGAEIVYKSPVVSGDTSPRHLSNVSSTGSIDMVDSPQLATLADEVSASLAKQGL
T2 sequence (P05067 672-711 limits assumed): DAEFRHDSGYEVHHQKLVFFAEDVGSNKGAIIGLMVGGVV

Row | IC50 [1] [nM] | IC50 [2] [nM] | Compound
1 | 60 | 3120 | CCCOc1cc(/C=c2\sc3nc(-c4cnc[nH]4)cn3c2=O)cc(Cl)c1O [Example 119, 2-[1-(3-Chloro-4-hydroxy-5-propoxy-phenyl)-meth-(Z)-ylidene]-6-(3H-imidazol-4-yl)-imidazo[2,1-b]thiazol-3-one]
2 | 20 | 1790 | COc1cccc(-c2cn3c(=O)/c(=C/c4cc(F)c(O)c(OC)c4)sc3n2)n1 [Example 48, 2-[1-(3-Fluoro-4-hydroxy-5-methoxy-phenyl)-meth-(Z)-ylidene]-6-(6-methoxy-pyridin-2-yl)-imidazo[2,1-b]thiazol-3-one]
3 | 30 | 293 | CCCOc1cc(/C=c2\sc3nc(-c4ccccn4)cn3c2=O)cc(Cl)c1O [Example 136, 2-[1-(3-Chloro-4-hydroxy-5-propoxy-phenyl)-meth-(Z)-ylidene]-6-pyridin-2-yl-imidazo[2,1-b]thiazol-3-one]
4 | 2 | 792 | COc1cc(/C=c2\sc3nc(-c4ccc(C(N)=O)cc4)cn3c2=O)cc(Cl)c1O [Example 101, 4-{2-[1-(3-Chloro-4-hydroxy-5-methoxy-phenyl)-meth-(Z)-ylidene]-3-oxo-2,3-dihydro-imidazo[2,1-b]thiazol-6-yl}-benzamide]
5 | 3 | 300 | COc1cc(/C=c2\sc3nc(-c4ccncc4)cn3c2=O)cc(Cl)c1O [Example 68, 2-[1-(3-Chloro-4-hydroxy-5-methoxy-phenyl)-meth-(Z)-ylidene]-6-(pyridin-4-yl)-imidazo[2,1-b]thiazol-3-one]
6 | 3 | 229 | COc1cc(/C=c2\sc3nc(-c4cccnc4)cn3c2=O)cc(Br)c1O [Example 72, 2-[1-(3-Bromo-4-hydroxy-5-methoxy-phenyl)-meth-(Z)-ylidene]-6-(pyridin-3-yl)-imidazo[2,1-b]thiazol-3-one]
7 | 25 | 851 | COc1cc(/C=c2\sc3nc(-c4ccccc4)cn3c2=O)cc(Cl)c1O [Example 60, 2-[1-(3-Chloro-4-hydroxy-5-methoxy-phenyl)-meth-(Z)-ylidene]-6-phenyl-imidazo[2,1-b]thiazol-3-one]
8 | 49 | 215 | COc1cc(/C=c2\sc3nc(-c4ccc(Cl)cc4)cn3c2=O)ccc1O [Example 3, 6-(4-Chloro-phenyl)-2-[1-(4-hydroxy-3-methoxy-phenyl)-meth-(Z)-ylidene]-imidazo[2,1-b]thiazol-3-one]
9 | 7 | 304 | COc1cc(/C=c2\sc3nc(-c4cc(C)nc(C)c4)cn3c2=O)cc(Br)c1O [Example 65, 2-[1-(3-Bromo-4-hydroxy-5-methoxy-phenyl)-meth-(Z)-ylidene]-6-(2,6-dimethyl-pyridin-4-yl)-imidazo[2,1-b]thiazol-3-one]
10 | 6 | 3320 | COc1cc(/C=c2\sc3nc(-c4cccc(F)c4)cn3c2=O)cc(Cl)c1O [Example 57, 2-[1-(3-Chloro-4-hydroxy-5-methoxy-phenyl)-meth-(Z)-ylidene]-6-(3-fluoro-phenyl)-imidazo[2,1-b]thiazol-3-one]
11 | 9 | 1060 | COc1cc(/C=c2\sc3nc(-c4ccc5c(c4)OCCO5)cn3c2=O)cc(Cl)c1O [Example 100, 2-[1-(3-Chloro-4-hydroxy-5-methoxy-phenyl)-meth-(Z)-ylidene]-6-(2,3-dihydro-benzo[1,4]dioxin-6-yl)-imidazo[2,1-b]thiazol-3-one]
12 | 4 | 395 | CNC(=O)c1cccc(-c2cn3c(=O)/c(=C/c4cc(Cl)c(O)c(OC)c4)sc3n2)c1 [Example 108, 3-{2-[1-(3-Chloro-4-hydroxy-5-methoxy-phenyl)-meth-(Z)-ylidene]-3-oxo-2,3-dihydro-imidazo[2,1-b]thiazol-6-yl}-N-methyl-benzamide]
13 | 12 | 1060 | O=c1/c(=C/c2cc(Cl)c(O)c(OCCCF)c2)sc2nc(-c3ccncc3)cn12 [Example 123, 2-[1-(3-Chloro-5-(3-fluoropropoxy)-4-hydroxy-phenyl)-meth-(Z)-ylidene]-6-pyridin-4-yl-imidazo[2,1-b]thiazol-3-one]
